The results in this text go back to the supplement of paper PMC10307832.

Common to all, as to assay: relative viability (nuclei count vs DMSO), 5 days (fraction); higher = more cells survive
Compound in assay [1]: C[C@@H](C(=O)N[C@@H](C1CCCCC1)C(=O)N2CCC[C@H]2C(=O)N[C@@H]3[C@@H](CC4=CC=CC=C34)OCC#CC#CCO[C@@H]5CC6=CC=CC=C6[C@@H]5NC(=O)[C@@H]7CCCN7C(=O)[C@H](C8CCCCC8)NC(=O)[C@H](C)NC)NC [AZD5582] + CC(=O)Nc1cccc(-n2c(=O)n(C3CC3)c(=O)c3c(Nc4ccc(I)cc4F)n(C)c(=O)c(C)c32)c1 [Trametinib] (partner 0.02 µM)
The essentials:
(§1)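 Relative viability is defined as nuclei in treated wells over nuclei in vehicle wells. Duplicate plates were run and medians reported. Lung cancer cell lines in 1536-well plates were dosed by pin tool one day after seeding, with one drug or with a fixed anchor-drug dose plus five library-drug doses (not always all listed) in √10 steps, and nuclei were counted after 5 days.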

Compound in assay [2]: C[C@@H](C(=O)N[C@@H](C1CCCCC1)C(=O)N2CCC[C@H]2C(=O)N[C@@H]3[C@@H](CC4=CC=CC=C34)OCC#CC#CCO[C@@H]5CC6=CC=CC=C6[C@@H]5NC(=O)[C@@H]7CCCN7C(=O)[C@H](C8CCCCC8)NC(=O)[C@H](C)NC)NC [AZD5582] + CC(=O)c1c(C)c2cnc(Nc3ccc(N4CCNCC4)cn3)nc2n(C2CCCC2)c1=O [Palbociclib] (partner 0.5 µM)
The essentials: as §1

Compound in assay [3]: C[C@@H](C(=O)N[C@@H](C1CCCCC1)C(=O)N2CCC[C@H]2C(=O)N[C@@H]3[C@@H](CC4=CC=CC=C34)OCC#CC#CCO[C@@H]5CC6=CC=CC=C6[C@@H]5NC(=O)[C@@H]7CCCN7C(=O)[C@H](C8CCCCC8)NC(=O)[C@H](C)NC)NC [AZD5582] + C[C@]1(O)C[C@@H](c2nc(-c3ccc4ccc(-c5ccccc5)nc4c3)c3c(N)nccn32)C1 [Linsitinib] (partner 1 µM)
In outline:
as §1

Compound in assay [4]: C[C@@H](C(=O)N[C@@H](C1CCCCC1)C(=O)N2CCC[C@H]2C(=O)N[C@@H]3[C@@H](CC4=CC=CC=C34)OCC#CC#CCO[C@@H]5CC6=CC=CC=C6[C@@H]5NC(=O)[C@@H]7CCCN7C(=O)[C@H](C8CCCCC8)NC(=O)[C@H](C)NC)NC [AZD5582] + CC1(C)CCC(c2ccc(Cl)cc2)=C(CN2CCN(c3ccc(C(=O)NS(=O)(=O)c4ccc(N[C@H](CCN5CCOCC5)CSc5ccccc5)c(S(=O)(=O)C(F)(F)F)c4)cc3)CC2)C1 [Navitoclax] (partner 0.5 µM)
The essentials:
as §1

Compound in assay [5]: C[C@@H](C(=O)N[C@@H](C1CCCCC1)C(=O)N2CCC[C@H]2C(=O)N[C@@H]3[C@@H](CC4=CC=CC=C34)OCC#CC#CCO[C@@H]5CC6=CC=CC=C6[C@@H]5NC(=O)[C@@H]7CCCN7C(=O)[C@H](C8CCCCC8)NC(=O)[C@H](C)NC)NC [AZD5582] + Cc1nc(Nc2ncc(C(=O)Nc3c(C)cccc3Cl)s2)cc(N2CCN(CCO)CC2)n1 [Dasatinib] (partner 0.075 µM)
In outline: as §1

Take NCI-H1648: the relative viability amounted to 0.38 in assay [1] (first compound 0.001581 µM); 0.511 in assay [1] (first compound 0.005 µM); 0.412 in assay [1] (first compound 0.05 µM); 0.264 in assay [2] (first compound 0.001581 µM); 0.311 in assay [2] (first compound 0.005 µM); 0.274 in assay [2] (first compound 0.05 µM).

As for NCI-H1299, the relative viability in assay [3] (first compound 0.001581 µM) stood at 0.93; in assay [3] (first compound 0.005 µM), 1.04; in assay [3] (first compound 0.01581 µM), 1.01; in assay [3] (first compound 0.05 µM), 0.97; in assay [4] (first compound 0.001581 µM), 1; in assay [4] (first compound 0.005 µM) it was 1.07. Further, the relative viability stood at 1.08 in assay [4] (first compound 0.01581 µM) and 1.04 in assay [4] (first compound 0.05 µM).

For NCI-H1623, the relative viability in assay [5] (first compound 0.001581 µM) stood at 0.514; in assay [5] (first compound 0.005 µM), 0.582; in assay [5] (first compound 0.01581 µM) it was 0.559; in assay [5] (first compound 0.05 µM), 0.433.

For the cell line SW 900, the relative viability in assay [5] (first compound 0.001581 µM) stood at 0.482; in assay [5] (first compound 0.005 µM), 0.424; in assay [5] (first compound 0.01581 µM) it was 0.393; in assay [5] (first compound 0.05 µM), 0.653; in assay [1] (first compound 0.001581 µM), 0.634; in assay [1] (first compound 0.005 µM) it was 0.865. In addition, the relative viability was 0.758 in assay [1] (first compound 0.01581 µM); 0.615 in assay [1] (first compound 0.05 µM); 0.443 in assay [2] (first compound 0.001581 µM); 0.566 in assay [2] (first compound 0.005 µM); 0.531 in assay [2] (first compound 0.01581 µM); 0.435 in assay [2] (first compound 0.05 µM).

Consider LCLC-103H, for which the relative viability in assay [3] (first compound 0.001581 µM) came out at 1.06; in assay [3] (first compound 0.005 µM), 1.33; in assay [3] (first compound 0.01581 µM) it was 1; in assay [3] (first compound 0.05 µM), 1.19; in assay [5] (first compound 0.001581 µM), 0.411; in assay [5] (first compound 0.005 µM) it was 0.475. The relative viability came out at 0.403 in assay [5] (first compound 0.01581 µM); 0.152 in assay [5] (first compound 0.05 µM); 0.702 in assay [1] (first compound 0.001581 µM); 0.813 in assay [1] (first compound 0.005 µM); 0.643 in assay [1] (first compound 0.01581 µM); 0.828 in assay [1] (first compound 0.05 µM). The relative viability in assay [2] (first compound 0.001581 µM) amounted to 0.47; in assay [2] (first compound 0.005 µM), 0.469; in assay [2] (first compound 0.01581 µM), 0.432; in assay [2] (first compound 0.05 µM), 0.377.

As for A549, the relative viability in assay [3] (first compound 0.001581 µM) turned out to be 0.545; in assay [3] (first compound 0.005 µM) it was 0.768; in assay [3] (first compound 0.01581 µM), 0.444; in assay [3] (first compound 0.05 µM) it was 0.726; in assay [4] (first compound 0.001581 µM), 1.24; in assay [4] (first compound 0.005 µM), 1.26. Further, the relative viability is 1.2 in assay [4] (first compound 0.01581 µM) and 1.14 in assay [4] (first compound 0.05 µM).

Consider NCI-H2342, for which the relative viability in assay [5] (first compound 0.001581 µM) turned out to be 0.316; in assay [5] (first compound 0.005 µM), 0.315; in assay [5] (first compound 0.01581 µM) it was 0.27; in assay [5] (first compound 0.05 µM) it was 0.319; in assay [1] (first compound 0.001581 µM), 0.792; in assay [1] (first compound 0.005 µM), 0.922. Further, the relative viability in assay [1] (first compound 0.01581 µM) was determined as 0.693; in assay [1] (first compound 0.05 µM) it was 0.932; in assay [2] (first compound 0.001581 µM), 0.492; in assay [2] (first compound 0.005 µM), 0.518; in assay [2] (first compound 0.01581 µM), 0.491; in assay [2] (first compound 0.05 µM), 0.54.
